pIC50: −log10 of the molar value. Counter-ions that a name gives are not always drawn. Like-named read-outs stand apart in the source and are kept apart here.
Columns and labels:
[1] = target: PI 3-kinase gamma (Homo sapiens, UniProt P48736); assay: TR-FRET Adapta assay, assay E; type: biochemical; details: read-out: Assay E PI3Kγ IC50
[2] = target: mTOR (Homo sapiens, UniProt P42345); assay: Lanthascreen kinase binding assay, assay G; details: read-out: Assay G mTOR IC50
Protocol: Lanthascreen™ Kinase Binding Assay for mTOR (G)
Binding of an inhibitor to the kinase competes for binding with the tracer, resulting in a loss of FRET.
50 nL of compound dilutions were dispensed onto white 384-well small volume polystyrene plate.

[3] = target: PI 4-kinase beta (Homo sapiens, UniProt Q9UBF8); assay: Kinase Glo Luminescent Kinase Assay (Kglo), assay D; type: biochemical; details: read-out: Assay D PI4Kβ IC50
PI 4-kinase beta, sequence (Q9UBF8 whole entry): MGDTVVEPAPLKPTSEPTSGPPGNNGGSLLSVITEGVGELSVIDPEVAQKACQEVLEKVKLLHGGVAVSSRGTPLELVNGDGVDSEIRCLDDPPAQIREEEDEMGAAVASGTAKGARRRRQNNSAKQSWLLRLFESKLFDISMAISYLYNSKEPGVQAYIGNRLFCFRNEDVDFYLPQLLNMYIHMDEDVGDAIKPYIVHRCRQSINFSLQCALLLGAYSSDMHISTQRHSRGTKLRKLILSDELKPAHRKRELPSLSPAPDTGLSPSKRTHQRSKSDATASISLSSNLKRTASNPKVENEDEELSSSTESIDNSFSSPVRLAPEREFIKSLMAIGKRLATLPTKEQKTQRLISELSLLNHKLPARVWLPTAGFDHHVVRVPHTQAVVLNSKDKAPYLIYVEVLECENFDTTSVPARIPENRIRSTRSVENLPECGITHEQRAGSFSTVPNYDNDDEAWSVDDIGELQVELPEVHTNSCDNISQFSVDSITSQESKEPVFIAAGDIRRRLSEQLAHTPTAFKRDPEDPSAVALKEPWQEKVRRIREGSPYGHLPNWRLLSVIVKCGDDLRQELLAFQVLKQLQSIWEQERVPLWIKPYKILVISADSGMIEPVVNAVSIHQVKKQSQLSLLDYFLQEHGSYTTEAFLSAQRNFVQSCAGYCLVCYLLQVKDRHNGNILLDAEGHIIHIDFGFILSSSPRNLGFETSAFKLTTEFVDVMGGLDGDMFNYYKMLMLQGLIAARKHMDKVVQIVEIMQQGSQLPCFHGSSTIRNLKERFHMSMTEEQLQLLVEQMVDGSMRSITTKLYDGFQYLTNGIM

[4] = target: PI 3-kinase alpha (Homo sapiens, UniProt P42336); assay: Kinase Glo Luminescent Kinase Assay (Kglo), assay A; type: biochemical; details: read-out: Assay A PI3Kα IC50
[5] = target: PI 3-kinase delta (Homo sapiens, UniProt O00329); assay: TR-FRET Adapta assay, assay F
PI 3-kinase delta, sequence (O00329 whole entry): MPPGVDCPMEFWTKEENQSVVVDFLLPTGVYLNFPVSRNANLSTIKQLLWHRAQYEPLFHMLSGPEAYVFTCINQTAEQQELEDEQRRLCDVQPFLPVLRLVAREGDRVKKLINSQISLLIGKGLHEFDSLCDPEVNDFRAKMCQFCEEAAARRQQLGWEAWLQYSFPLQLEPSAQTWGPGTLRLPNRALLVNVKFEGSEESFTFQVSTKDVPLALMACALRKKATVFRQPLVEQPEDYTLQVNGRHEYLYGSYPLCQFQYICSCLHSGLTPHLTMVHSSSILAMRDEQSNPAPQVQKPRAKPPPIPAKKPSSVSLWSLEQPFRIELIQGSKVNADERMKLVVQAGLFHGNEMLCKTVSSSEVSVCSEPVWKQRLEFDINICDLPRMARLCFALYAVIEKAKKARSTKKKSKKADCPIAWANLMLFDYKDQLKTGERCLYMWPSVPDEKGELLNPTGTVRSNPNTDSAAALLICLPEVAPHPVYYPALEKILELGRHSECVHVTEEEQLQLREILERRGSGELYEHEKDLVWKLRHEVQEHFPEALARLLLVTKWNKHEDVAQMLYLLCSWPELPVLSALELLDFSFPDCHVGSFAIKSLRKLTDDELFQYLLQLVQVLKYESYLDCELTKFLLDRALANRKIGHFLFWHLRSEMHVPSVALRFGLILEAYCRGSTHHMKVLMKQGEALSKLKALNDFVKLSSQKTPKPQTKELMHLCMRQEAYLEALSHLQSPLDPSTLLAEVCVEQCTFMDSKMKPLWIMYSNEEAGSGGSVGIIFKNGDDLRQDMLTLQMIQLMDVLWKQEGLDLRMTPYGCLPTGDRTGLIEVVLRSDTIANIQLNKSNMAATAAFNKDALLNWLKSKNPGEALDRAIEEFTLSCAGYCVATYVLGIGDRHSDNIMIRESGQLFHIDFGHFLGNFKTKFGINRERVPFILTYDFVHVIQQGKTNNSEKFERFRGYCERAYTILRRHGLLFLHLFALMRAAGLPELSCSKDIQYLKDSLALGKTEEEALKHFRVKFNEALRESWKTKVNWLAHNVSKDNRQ
PI 3-kinase delta, sequence (P27986 461-568 partner): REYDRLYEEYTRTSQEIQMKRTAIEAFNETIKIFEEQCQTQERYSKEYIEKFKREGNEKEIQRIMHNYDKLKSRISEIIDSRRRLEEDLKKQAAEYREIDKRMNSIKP

[6] = target: PI 3-kinase beta (Homo sapiens, UniProt P42338); assay: Kinase Glo Luminescent Kinase Assay (Kglo), assay B; type: biochemical; details: read-out: Assay B PI3Kβ IC50
PI 3-kinase beta, sequence (P42338 whole entry): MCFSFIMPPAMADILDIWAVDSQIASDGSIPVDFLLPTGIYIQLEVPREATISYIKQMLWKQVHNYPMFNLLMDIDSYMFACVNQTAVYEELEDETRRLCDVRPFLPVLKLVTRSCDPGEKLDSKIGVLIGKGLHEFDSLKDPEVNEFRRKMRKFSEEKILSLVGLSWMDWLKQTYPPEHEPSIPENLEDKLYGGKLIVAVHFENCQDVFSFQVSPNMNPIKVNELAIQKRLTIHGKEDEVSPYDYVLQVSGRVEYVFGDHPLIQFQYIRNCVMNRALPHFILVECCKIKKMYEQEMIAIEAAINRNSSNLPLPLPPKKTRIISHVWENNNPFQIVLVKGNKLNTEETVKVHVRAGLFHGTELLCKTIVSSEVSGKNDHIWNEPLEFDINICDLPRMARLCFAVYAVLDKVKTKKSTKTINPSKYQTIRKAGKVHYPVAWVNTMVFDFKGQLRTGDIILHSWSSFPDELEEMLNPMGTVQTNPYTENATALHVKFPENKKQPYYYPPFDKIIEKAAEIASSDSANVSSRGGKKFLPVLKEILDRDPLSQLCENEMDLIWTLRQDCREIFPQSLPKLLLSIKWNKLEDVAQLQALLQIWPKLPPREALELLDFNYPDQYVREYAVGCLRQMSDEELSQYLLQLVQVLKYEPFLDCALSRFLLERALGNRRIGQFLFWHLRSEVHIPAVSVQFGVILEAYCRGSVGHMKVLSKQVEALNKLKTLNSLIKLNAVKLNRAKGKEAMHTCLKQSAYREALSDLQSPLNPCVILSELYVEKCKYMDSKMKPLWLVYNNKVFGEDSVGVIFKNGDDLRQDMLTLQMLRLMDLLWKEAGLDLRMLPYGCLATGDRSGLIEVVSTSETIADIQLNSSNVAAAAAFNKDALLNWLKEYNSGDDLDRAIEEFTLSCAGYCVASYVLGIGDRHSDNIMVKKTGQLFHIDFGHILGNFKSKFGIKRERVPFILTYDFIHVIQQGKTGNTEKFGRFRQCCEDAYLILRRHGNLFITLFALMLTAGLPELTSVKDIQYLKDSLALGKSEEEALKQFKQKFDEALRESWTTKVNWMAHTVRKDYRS
PI 3-kinase beta, sequence (P27986 461-568 partner): as the sequence (P27986 461-568 partner) above

[7] = target: Vps34 (Homo sapiens, UniProt Q8NEB9); assay: Kinase Glo Luminescent Kinase Assay (Kglo), assay C; type: biochemical; details: read-out: Assay C VPS34 IC50
Vps34, sequence (Q8NEB9 whole entry, species assumed): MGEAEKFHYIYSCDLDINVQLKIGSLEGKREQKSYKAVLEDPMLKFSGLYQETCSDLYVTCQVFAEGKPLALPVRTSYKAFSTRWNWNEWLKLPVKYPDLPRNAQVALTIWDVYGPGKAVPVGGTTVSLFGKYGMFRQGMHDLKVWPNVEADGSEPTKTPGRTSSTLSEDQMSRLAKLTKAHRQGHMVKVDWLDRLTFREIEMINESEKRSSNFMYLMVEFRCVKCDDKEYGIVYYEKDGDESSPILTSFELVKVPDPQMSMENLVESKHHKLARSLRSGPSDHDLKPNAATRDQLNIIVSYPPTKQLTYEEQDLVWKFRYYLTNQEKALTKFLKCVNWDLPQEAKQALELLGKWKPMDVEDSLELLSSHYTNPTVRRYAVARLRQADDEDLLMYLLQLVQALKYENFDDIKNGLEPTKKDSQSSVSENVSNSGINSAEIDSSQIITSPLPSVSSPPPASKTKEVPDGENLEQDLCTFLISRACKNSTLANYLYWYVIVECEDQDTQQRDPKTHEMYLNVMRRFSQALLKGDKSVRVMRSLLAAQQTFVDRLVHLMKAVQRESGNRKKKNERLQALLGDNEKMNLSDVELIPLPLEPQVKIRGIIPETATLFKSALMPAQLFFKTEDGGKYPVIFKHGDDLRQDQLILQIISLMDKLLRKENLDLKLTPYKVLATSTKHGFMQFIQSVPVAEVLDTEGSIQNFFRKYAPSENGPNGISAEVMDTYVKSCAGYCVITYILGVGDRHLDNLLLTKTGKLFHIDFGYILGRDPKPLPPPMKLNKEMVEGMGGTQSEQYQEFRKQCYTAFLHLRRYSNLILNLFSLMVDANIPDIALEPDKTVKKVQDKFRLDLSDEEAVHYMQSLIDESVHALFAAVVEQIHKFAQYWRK

PI 3-kinase gamma, sequence (P48736 whole entry): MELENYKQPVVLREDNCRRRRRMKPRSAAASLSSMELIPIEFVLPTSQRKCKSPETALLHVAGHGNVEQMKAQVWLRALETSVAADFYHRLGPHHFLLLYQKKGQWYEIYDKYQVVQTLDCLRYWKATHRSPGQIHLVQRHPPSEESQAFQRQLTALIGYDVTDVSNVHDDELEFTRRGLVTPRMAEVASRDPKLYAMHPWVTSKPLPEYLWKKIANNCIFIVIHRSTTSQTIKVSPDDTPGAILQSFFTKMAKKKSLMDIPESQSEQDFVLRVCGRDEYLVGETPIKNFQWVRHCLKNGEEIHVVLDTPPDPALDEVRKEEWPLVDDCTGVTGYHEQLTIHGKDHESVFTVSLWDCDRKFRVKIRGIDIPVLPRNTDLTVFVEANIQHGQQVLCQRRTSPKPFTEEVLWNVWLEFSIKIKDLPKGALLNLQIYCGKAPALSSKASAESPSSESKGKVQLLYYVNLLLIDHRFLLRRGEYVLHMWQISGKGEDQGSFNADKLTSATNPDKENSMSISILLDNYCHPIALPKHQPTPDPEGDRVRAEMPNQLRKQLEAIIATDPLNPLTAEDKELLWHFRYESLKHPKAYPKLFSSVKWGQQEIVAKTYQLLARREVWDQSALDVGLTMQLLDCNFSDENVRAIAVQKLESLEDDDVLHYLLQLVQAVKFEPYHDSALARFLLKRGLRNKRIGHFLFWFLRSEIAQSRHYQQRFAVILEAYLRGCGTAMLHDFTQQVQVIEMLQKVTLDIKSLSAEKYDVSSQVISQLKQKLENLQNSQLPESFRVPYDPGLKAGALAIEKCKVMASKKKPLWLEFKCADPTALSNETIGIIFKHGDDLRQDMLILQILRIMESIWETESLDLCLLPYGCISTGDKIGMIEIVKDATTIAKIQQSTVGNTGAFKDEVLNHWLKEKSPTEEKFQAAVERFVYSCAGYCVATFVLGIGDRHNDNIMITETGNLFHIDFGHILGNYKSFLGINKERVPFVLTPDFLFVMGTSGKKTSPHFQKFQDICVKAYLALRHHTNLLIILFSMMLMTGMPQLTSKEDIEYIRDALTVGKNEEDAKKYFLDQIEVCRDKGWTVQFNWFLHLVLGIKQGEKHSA

Cc1ccc(S(=O)(=O)NCC2CCN(C)C2)cc1-c1cnc(N)c(-n2cncn2)n1 (centres unmarked) [Example 127.18]
pIC50 [1]: 5.89 | pIC50 [2]: < 5.00 | pIC50 [3]: < 5.00 | pIC50 [4]: 5.72 | pIC50 ([5]; read-out: Assay F PI3Kδ IC50): 6.42 | pIC50 [6]: 5.62 | pIC50 [7]: < 5.00

Cc1ccc(S(=O)(=O)N[C@@H]2CCOC2)cc1-c1cnc(N)c(-n2cncn2)n1 [Example 127.20]
pIC50 [1]: 6.89 | pIC50 [2]: < 5.00 | pIC50 [3]: 5.28 | pIC50 [4]: 6.01 | pIC50 ([5]; read-out: Assay F PI3Kδ IC50): 5.77 | pIC50 [6]: 5.29 | pIC50 [7]: < 5.00

Cc1ccc(S(=O)(=O)NC2CCOC2=O)cc1-c1cnc(N)c(-n2cncn2)n1 (centres unmarked) [Example 127.30]
pIC50 [1]: 6.89 | pIC50 [2]: < 5.00 | pIC50 [3]: 5.11 | pIC50 [4]: 5.72 | pIC50 ([5]; read-out: Assay F PI3Kδ IC50): 5.80 | pIC50 [6]: 5.28 | pIC50 [7]: < 5.00

Cc1ccc(S(=O)(=O)NCC2(CO)CC2)cc1-c1cnc(N)c(-n2cncn2)n1 [Example 127.38]
pIC50 [1]: 7.00 | pIC50 [2]: < 5.00 | pIC50 [3]: 5.17 | pIC50 [4]: 6.27 | pIC50 ([5]; read-out: Assay F PI3Kδ IC50): 5.55 | pIC50 [6]: 5.46 | pIC50 [7]: < 5.00

Cc1ccc(S(=O)(=O)NC[C@@H]2CCC(C)(C)O2)cc1-c1cnc(N)c(-n2cncn2)n1 [Example 127.40]
pIC50 [1]: 6.85 | pIC50 [2]: < 5.00 | pIC50 [3]: 5.12 | pIC50 [4]: 6.11 | pIC50 [5]: 5.85 | pIC50 [6]: 5.82 | pIC50 [7]: < 5.00

Cc1ccc(S(=O)(=O)N[C@@H](C)CO)cc1-c1cnc(N)c(-n2cncn2)n1 [Example 127.41]
pIC50 [1]: 6.57 | pIC50 [2]: < 5.00 | pIC50 [3]: 5.38 | pIC50 [4]: 5.77 | pIC50 ([5]; read-out: Assay F PI3Kδ IC50): 5.18 | pIC50 [6]: 5.46 | pIC50 [7]: < 5.00

Cc1ccc(S(=O)(=O)NC(C)CO)cc1-c1cnc(N)c(-n2cncn2)n1 (centres unmarked) [Example 127.42]
pIC50 [1]: 6.10 | pIC50 [2]: < 5.00 | pIC50 [3]: 5.15 | pIC50 [4]: 5.77 | pIC50 ([5]; read-out: Assay F PI3Kδ IC50): < 5.00 | pIC50 [6]: 5.23 | pIC50 [7]: < 5.00

Cc1ccc(S(=O)(=O)NC(C)C(C)C)cc1-c1cnc(N)c(-n2cncn2)n1 (centres unmarked) [Example 127.44]
pIC50 [1]: 6.92 | pIC50 [2]: 5.43 | pIC50 [3]: 5.21 | pIC50 [4]: 6.14 | pIC50 ([5]; read-out: Assay F PI3Kδ IC50): 5.85 | pIC50 [6]: 5.66 | pIC50 [7]: < 5.00

Cc1ccc(S(=O)(=O)NCC2(CO)CCC2)cc1-c1cnc(N)c(-n2cncn2)n1 [Example 127.49]
pIC50 [1]: 7.89 | pIC50 [2]: 5.15 | pIC50 [3]: 5.40 | pIC50 [4]: 7.00 | pIC50 ([5]; read-out: Assay F PI3Kδ IC50): 6.49 | pIC50 [6]: 6.34 | pIC50 [7]: < 5.00

Cc1ccc(S(=O)(=O)NCC2(CO)CCOCC2)cc1-c1cnc(N)c(-n2cncn2)n1 [Example 127.50]
pIC50 [1]: 7.49 | pIC50 [2]: 5.25 | pIC50 [3]: < 5.00 | pIC50 [4]: 6.08 | pIC50 ([5]; read-out: Assay F PI3Kδ IC50): 5.68 | pIC50 [6]: 5.85 | pIC50 [7]: < 5.00

Cc1ccc(S(=O)(=O)NC2CCSC2=O)cc1-c1cnc(N)c(-n2cncn2)n1 (centres unmarked) [Example 127.51]
pIC50 [1]: 7.19 | pIC50 [2]: 5.23 | pIC50 [3]: 5.28 | pIC50 [4]: 6.22 | pIC50 ([5]; read-out: Assay F PI3Kδ IC50): 6.24 | pIC50 [6]: 5.72 | pIC50 [7]: < 5.00

Cc1ccc(S(=O)(=O)N[C@@H]2CNC[C@H]2O)cc1-c1cnc(N)c(-n2cncn2)n1 [Example 127.60, 3-(5-amino-6-(1H-1,2,4-triazol-1-yl)pyrazin-2-yl)-N-((3R,4R)-4-hydroxypyrrolidin-3-yl)-4-methylbenzenesulfonamide trifluoroacetic acid salt]
pIC50 [1]: 6.85 | pIC50 [2]: < 5.00 | pIC50 [3]: 5.48 | pIC50 [4]: 6.02 | pIC50 [5]: 5.62 | pIC50 [6]: 6.14 | pIC50 [7]: < 5.00

Cc1cc(-c2nc(-c3cc(S(=O)(=O)NCC4(O)CCCCC4)ccc3C)cnc2N)ccn1 [Example 129.4, 3-(5-amino-6-(2-methylpyridin-4-yl)pyrazin-2-yl)-N-((1-hydroxycyclohexyl)methyl)-4-methylbenzenesulfonamide]
pIC50 [1]: 7.16 | pIC50 [2]: 5.30 | pIC50 [3]: < 5.04 | pIC50 [4]: 6.72 | pIC50 ([5]; read-out: Assay F PI3Kδ IC50): 6.37 | pIC50 [6]: < 5.04 | pIC50 [7]: < 5.04

CC[C@@H](CO)NS(=O)(=O)c1ccc(C)c(-c2cnc(N)c(-c3ccnc(C)c3)n2)c1 [Example 129.6, (S)-3-(5-amino-6-(2-methylpyridin-4-yl)pyrazin-2-yl)-N-(1-hydroxybutan-2-yl)-4-methylbenzenesulfonamide]
pIC50 [1]: 6.57 | pIC50 [2]: < 5.04 | pIC50 [3]: < 5.04 | pIC50 [4]: 6.13 | pIC50 ([5]; read-out: Assay F PI3Kδ IC50): 5.55 | pIC50 [6]: < 5.04 | pIC50 [7]: < 5.04

CC[C@H](CO)NS(=O)(=O)c1ccc(C)c(-c2cnc(N)c(-c3ccnc(C)c3)n2)c1 [Example 129.7, (R)-3-(5-amino-6-(2-methylpyridin-4-yl)pyrazin-2-yl)-N-(1-hydroxybutan-2-yl)-4-methylbenzenesulfonamide]
pIC50 [1]: 6.57 | pIC50 [2]: 5.11 | pIC50 [3]: < 5.04 | pIC50 [4]: 6.05 | pIC50 ([5]; read-out: Assay F PI3Kδ IC50): 5.48 | pIC50 [6]: < 5.04 | pIC50 [7]: < 5.04

Cc1cc(-c2nc(-c3cc(S(=O)(=O)NC4CCOCC4)ccc3C)cnc2N)ccn1 [Example 129.10, 3-(5-amino-6-(2-methylpyridin-4-yl)pyrazin-2-yl)-4-methyl-N-(tetrahydro-2H-pyran-4-yl)benzenesulfonamide]
pIC50 [1]: 7.57 | pIC50 [2]: < 5.04 | pIC50 [3]: 5.21 | pIC50 [4]: 6.26 | pIC50 ([5]; read-out: Assay F PI3Kδ IC50): 6.03 | pIC50 [6]: < 5.04 | pIC50 [7]: < 5.04

COC(C)(C)CNS(=O)(=O)c1ccc(C)c(-c2cnc(N)c(-c3ccnc(C)c3)n2)c1 [Example 129.15, 3-(5-amino-6-(2-methylpyridin-4-yl)pyrazin-2-yl)-N-(2-methoxy-2-methylpropyl)-4-methylbenzenesulfonamide]
pIC50 [1]: 6.62 | pIC50 [2]: < 5.04 | pIC50 [3]: < 5.04 | pIC50 [4]: 5.72 | pIC50 ([5]; read-out: Assay F PI3Kδ IC50): 5.68 | pIC50 [6]: < 5.04 | pIC50 [7]: < 5.04

Cc1cc(-c2nc(-c3cc(S(=O)(=O)NCC4CCCCO4)ccc3C)cnc2N)ccn1 (centres unmarked) [Example 129.16, 3-(5-amino-6-(2-methylpyridin-4-yl)pyrazin-2-yl)-4-methyl-N-((tetrahydro-2H-pyran-2-yl)methyl)benzenesulfonamide]
pIC50 [1]: 7.18 | pIC50 [2]: < 5.04 | pIC50 [3]: < 5.04 | pIC50 [4]: 6.20 | pIC50 ([5]; read-out: Assay F PI3Kδ IC50): 5.70 | pIC50 [6]: < 5.04 | pIC50 [7]: < 5.04

Cc1cc(-c2nc(-c3cc(S(=O)(=O)NC[C@@](C)(O)C(F)(F)F)ccc3C)cnc2N)ccn1 [Example 129.20, (R)-3-(5-amino-6-(2-methylpyridin-4-yl)pyrazin-2-yl)-4-methyl-N-(3,3,3-trifluoro-2-hydroxy-2-methylpropyl)benzenesulfonamide]
pIC50 [1]: 6.96 | pIC50 [2]: < 5.04 | pIC50 [3]: < 5.04 | pIC50 [4]: 6.49 | pIC50 ([5]; read-out: Assay F PI3Kδ IC50): 6.54 | pIC50 [6]: 5.07 | pIC50 [7]: < 5.04

Cc1cc(-c2nc(-c3cc(S(=O)(=O)NC4CCN(C)CC4)ccc3C)cnc2N)ccn1 [Example 129.22, 3-(5-amino-6-(2-methylpyridin-4-yl)pyrazin-2-yl)-4-methyl-N-(1-methylpiperidin-4-yl)benzenesulfonamide]
pIC50 [1]: 6.55 | pIC50 [2]: < 5.04 | pIC50 [3]: < 5.04 | pIC50 [4]: 5.82 | pIC50 ([5]; read-out: Assay F PI3Kδ IC50): 5.12 | pIC50 [6]: < 5.04 | pIC50 [7]: < 5.04

Source: patent US10004732B2 (Novartis AG, priority 2014, dated 2018)
